In patent publication US20040072882A1 (priority 2002, published 2004):
“Also recorded” adds a separate entry of the source. Where two headings read alike, the source gives them in different places.

Experiments:
[1] = Pharmacokinetics of epothilone D in patients (plasma levels by LC/MS/MS after intravenous infusion); type: in vivo, human
Method: (§1) H1/H2 blockers were given orally to the subjects 30-60 minutes prior to infusion to prevent any adverse reactions to the CREMOPHOR® in the composition. […] Thus, a dosage of 9 mg/m^2 required about 10-15 minutes of infusing, while a dose of 150 mg/m^2 required 3-4 hours of dosing. The patients were monitored by testing CBC with differential weekly, various laboratory tests every three weeks, and physical exams including neurological assessment every three weeks. Tumor assessments were made every six weeks.
Both the pharmacokinetics and pharmacodynamics of epothilone D were measured in the subjects. Plasma concentration as a function of time was measured in the first- and second cycles at various dose levels in several subjects.
As would be expected, the levels at the end of infusion are high and taper off gradually, and the concentration levels at any particular time are dose-dependent.

[2] = test system: advanced malignancy, either primary or metastatic; experiment: Tumor assessment / tumor markers in patients with advanced malignancy; type: in vivo, human
Text: Other criteria included adequate liver, renal and hematopoietic function, i.e., recovery from reversible effects of previous therapies, if any. Subjects included in the study provided their informed consent.
Approximately 52 patients meeting the above-described criteria were enrolled in the study. Of the patients treated, approximately 60% were male and 40% female, ranging in age from 23 to 85 years. A wide range of tumor types were included in the study, including colon, ovarian, prostate, and lung tumors. Most of the enrollees had received multiple rounds of other chemotherapies prior to entering the study.
as §1

[3] = test system: microtubules in interphase cells (PBMC's); experiment: Microtubule bundle formation in mononuclear cells (PBMC's) isolated from treated patients, immunofluorescence; type: in vivo, human
Text: The activity of the drug can be assessed by measuring bundling of microtubules in interphase cells. This is considered the hallmark of activity of microtubule-stabilizing agents such as paclitaxel. The bundle formation can readily be measured by immunofluorescence or Western blotting. In a typical determination, whole blood is collected from patients and mononuclear cells (PBMC's) are isolated for evaluation of bundle formation.
In addition to monitoring toxicity and pharmacokinetics, the pharmacodynamics of treatment was also monitored. The standard criterion is the ability of the drug to effect bundling of microtubules in interphase cells. Whole blood was collected from patients and mononuclear cells (PBMC's) were isolated. To measure bundle formation, the PBMC's were resuspended in 5% FBS/PBS containing 0.75×10^6 cells/mL and used to make cytospin preparations. The cells were then fixed in 100% methanol for 10 minutes at […], air dried and stored at 4° C. prior to immunostaining. For immunostaining, the cells were blocked in 10% Normal Goat Serum in PBS for 20 minutes and incubated with a 1:100 dilution of {tilde over (□)}tubulin monoclonal antibody diluted in 5% Normal Goat Serum in PBS for 1 hour at 37° C. The slides were then rinsed in PBS and incubated with 1:200 Cy3-conjugated goat anti-mouse IgG for 1 hour in the dark before mounting. Cell numbers were quantified using a Zeiss AXIOSCOP microscope and evaluated at levels of 500 cells per slide by individual investigators.

[4] = Toxicity monitoring in the patient study; type: in vivo, human
Text: In order to ensure that toxic limits are not exceeded, the effects of the administration on the subject are monitored. Possible effects include neurological impairment(s), which may manifest itself as cognitive/perceptual abnormalities, numbness in the limbs, difficulty in walking, dizziness, and the like. […] Other side effects may include nausea and vomiting, fatigue, rash, alopecia, and alteration in vital signs such as orthostatic hypotension.
H1/H2 blockers were given orally to the subjects 30-60 minutes prior to infusion to prevent any adverse reactions to the CREMOPHOR® in the composition. […] The patients were monitored by testing CBC with differential weekly, various laboratory tests every three weeks, and physical exams including neurological assessment every three weeks. Tumor assessments were made every six weeks.

[5] = paclitaxel comparison value; cited from earlier work

SMILES | dependence of the area under the curve (AUC) on dosage ([1]; dose range about 9 mg/m^2 to about 150 mg/m^2, first and second cycles) | half-life ([1]; human, in vivo, intravenous infusion, summary over study, read-out: half-life, mean value) [h] | clearance ([1]; human, in vivo, patients treated at 100 mg/m^2, averaged, read-out: Drug clearance (converted)) [mL/min] | half-life ([1]; human, in vivo, patients treated at 100 mg/m^2, averaged, read-out: elimination half-life (converted)) [h] | Vd ([1]; human, in vivo, patients treated at 100 mg/m^2, averaged, read-out: volume of distribution (Vz)) [L] | difference in pharmacokinetics between cycles ([1]; two cycles, three subjects at 60 mg/m^2) | disease status in patients receiving multiple cycles (at least four months) ([2]; human, in vivo) | tumor markers ([2]; ovarian, pancreatic, testicular, breast, and biliary diseases) | percentage of PBMCs with microtubule bundles ([3]; dosage 18 mg/m^2) [%] | percentage of PBMCs with microtubule bundles ([3]; dosage 120 mg/m^2) [%] | bundle formation at low dosage ([3]; dosage as low as 18 mg/m^2) | time of toxicity ([4]; dose level between 9 mg and about 60 mg per m^2) | severity of toxicities ([4]; dose-dependent toxicities) | onset of toxicity ([4]; higher dosages such as 90 mg/m^2 and […]^2) | myelosuppression ([4]; human, in vivo) | volume of distribution (Vz) [5] [L/m^2]
C/C1=C/C[C@@H](/C(C)=C/c2csc(C)n2)OC(=O)C[C@H](O)C(C)(C)C(=O)[C@H](C)[C@@H](O)[C@@H](C)CCC1 [epothilone D, Desoxyepothilone B] | linear correlation | 8 to 10 | 315 | 8.8 ± 2.4 | 232 ± 82 | no discernable difference | suggestive of stable disease | Tumor marker reductions were observed | 12 | 55 | Substantial amounts of bundle formation | start at day five and continue to day 15 | generally of Grade-2 in severity | as soon as the day after infusion is terminated | generally not been seen; also recorded: No clear evidence of myelosuppression was observed | –
CC(=O)O[C@H]1C(=O)[C@@]2(C)[C@H]([C@H](OC(=O)c3ccccc3)[C@]3(O)C[C@H](OC(=O)[C@H](O)[C@@H](NC(=O)c4ccccc4)c4ccccc4)C(C)=C1C3(C)C)[C@]1(OC(C)=O)CO[C@@H]1C[C@@H]2O [paclitaxel] | – | – | – | – | – | – | – | – | – | – | – | – | – | – | – | 140±70
